The target in assay [1] is T1, GST-tagged Tnks-2 (873-1166 aa) (Homo sapiens, UniProt Q9H2K2).
T1 construct: GST-tagged Tnks-2 (873-1166 aa, prepared in-house); made in house
The assay can be described thus: TNKS2 activity ELISA (autoparsylation assay). The assay is classed as biochemical. The procedure:
(§1) Description of the TNKS1 and TNKS2 ELISA Assay
(§2) Biochemical Activity Testing of TNKS 1 and 2: Activity ELISA (Autoparsylation Assay)
(§3) For analysis of autoparsylation activity of TNKS 1 and 2 an activity ELISA is performed: In the first step GST tagged TNKS is captured on a Glutathione coated plate. Then the activity assay with biotinylated NAD is performed in the absence/presence of the compounds. During the enzymatic reaction GST tagged TNKS transfers biotinylated ADP-ribose to itself from biotinylated NAD as co-substrate. For the detection streptavidin-HRP conjugate is added that binds to the biotinylated TNKS and is thereby captured to the plates. The amount of biotinylated resp. autoparsylated TNKS is detected with a luminescence substrate for HRP. The level of the luminescence signal correlates directly with the amount of autoparsylated TNKS and therefore with activity of TNKS.
(§4) The activity ELISA is performed in 384 well Glutathione coated microtiter plates (Express capture Glutathione coated plate, Biocat, Heidelberg, Germany). The plates are pre-equilibrated with PBS. Then the plates are incubated with 50 μl 20 ng/well GST-tagged Tnks-1 (1023-1327 aa, prepared in-house), respectively GST-tagged Tnks-2 (873-1166 aa, prepared in-house) in assay buffer (50 mM HEPES, 4 mM Mg-chloride, 0.05% Pluronic F-68, 2 mM DTT, pH 7.7) overnight at 4° C. The plates are washed 3 times with PBS-Tween-20. The wells are blocked by incubation at room temperature for 20 minutes with 50 μl blocking buffer (PBS, 0.05% Tween-20, 0.5% BSA). Afterwards the plates are washed 3 times with PBS-Tween-20. The enzymatic reaction is performed in 50 μl reaction solution (50 mM HEPES, 4 mM Mg-chloride, 0.05% Pluronic F-68, 1.4 mM DTT, 0.5% DMSO, pH 7.7) with 10 μM bio-NAD (Biolog, Life science Inst., Bremen, Germany) as co-substrate in the absence or presence of the test compound (10 dilution concentrations) for 1 hour at 30° C. The reaction is stopped by 3 times washing with PBS-Tween-20. For the detection 50 μl of 20 ng/μl Streptavidin, HRP conjugate (MoBiTec, Göttingen, Germany) in PBS/0.05% Tween-20/0.01% BSA are added and the plates are incubated for 30 minutes at room temperature. After three times washing with PBS-Tween-20 50 μl of SuperSignal ELISA Femto Maximum sensitivity substrate solution (ThermoFisherScientific (Pierce), Bonn, Germany) are added. Following a 1 minute incubation at room temperature luminescence signals are measured with an Envision multimode reader (Perkin Elmer LAS Germany GmbH) at 700 nm. The full value used is the inhibitor-free reaction. The pharmacological zero value used is XAV-939 (Tocris) in a final concentration of 5 μM. The inhibitory values (1050) are determined using either the program Symyx Assay Explorer® or Condosseo® from GeneData.
In general terms: An ELISA detects its analyte on a solid surface through an enzyme-linked reagent.

For assay [2], the target named is T2, GST-tagged Tnks-1 (1023-1327 aa) (Homo sapiens, UniProt O95271).
T2 construct: GST-tagged Tnks-1 (1023-1327 aa, prepared in-house); made in house
T2 sequence (O95271 1023-1327): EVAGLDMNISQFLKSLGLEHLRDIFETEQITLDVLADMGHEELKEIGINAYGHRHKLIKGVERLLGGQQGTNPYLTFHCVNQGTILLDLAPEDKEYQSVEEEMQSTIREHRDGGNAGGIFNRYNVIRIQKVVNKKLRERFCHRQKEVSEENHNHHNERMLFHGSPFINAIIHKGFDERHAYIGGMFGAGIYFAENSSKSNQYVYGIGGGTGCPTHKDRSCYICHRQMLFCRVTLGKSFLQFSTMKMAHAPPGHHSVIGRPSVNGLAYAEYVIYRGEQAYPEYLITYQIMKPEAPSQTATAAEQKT
Nature of the assay: TNKS1 activity ELISA (autoparsylation assay). In kind it is biochemical. The procedure: as §1, §2, §3, §4

Assay [3] deals with T3, His-tagged Parp-1 (Homo sapiens, UniProt P09874).
T3 construct: purchased Enzo Life Sciences GmbH
T3 sequence (P09874 whole entry): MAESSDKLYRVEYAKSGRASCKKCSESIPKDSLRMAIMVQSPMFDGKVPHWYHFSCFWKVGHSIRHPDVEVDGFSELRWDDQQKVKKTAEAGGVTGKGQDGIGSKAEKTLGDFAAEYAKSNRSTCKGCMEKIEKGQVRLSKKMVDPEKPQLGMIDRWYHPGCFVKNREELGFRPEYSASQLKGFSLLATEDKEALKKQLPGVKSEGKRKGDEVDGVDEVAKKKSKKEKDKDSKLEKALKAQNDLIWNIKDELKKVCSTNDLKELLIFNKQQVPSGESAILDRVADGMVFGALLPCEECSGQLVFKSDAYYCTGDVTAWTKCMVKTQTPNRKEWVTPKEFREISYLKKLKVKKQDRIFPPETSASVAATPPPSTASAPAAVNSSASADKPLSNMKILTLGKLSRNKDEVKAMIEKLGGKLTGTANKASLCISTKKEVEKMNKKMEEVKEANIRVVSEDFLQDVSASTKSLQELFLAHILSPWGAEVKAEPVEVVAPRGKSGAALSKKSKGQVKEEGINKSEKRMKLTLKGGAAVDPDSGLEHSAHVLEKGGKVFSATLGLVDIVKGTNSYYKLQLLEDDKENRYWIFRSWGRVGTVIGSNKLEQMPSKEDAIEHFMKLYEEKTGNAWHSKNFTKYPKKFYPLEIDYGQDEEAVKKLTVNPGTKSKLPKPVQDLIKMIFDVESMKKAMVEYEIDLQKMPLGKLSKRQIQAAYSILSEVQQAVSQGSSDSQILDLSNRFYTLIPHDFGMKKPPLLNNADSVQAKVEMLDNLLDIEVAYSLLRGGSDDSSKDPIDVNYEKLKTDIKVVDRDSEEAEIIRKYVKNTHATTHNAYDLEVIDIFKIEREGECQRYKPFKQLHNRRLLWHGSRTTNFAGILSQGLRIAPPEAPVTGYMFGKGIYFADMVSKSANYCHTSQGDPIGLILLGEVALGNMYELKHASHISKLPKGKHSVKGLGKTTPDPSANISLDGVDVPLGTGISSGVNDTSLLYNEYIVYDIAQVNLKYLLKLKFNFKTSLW
The assay can be described thus: PARP-1 autoparsylation assay (HTRF). The assay is classed as biochemical. The following applies: PARP-1 autoparsylation HTRF assay. An excerpt:
Description of the PARP1 Assay
Biochemical Activity Testing of PARP-1: Autoparsylation Assay
The autoparsylation assay is run in two steps: the enzymatic reaction in which
His-tagged Parp-1 transfers biotinylated ADP-ribose/ADP-ribose to itself from biotinylated NAD/NAD as co-substrate and the detection reaction where a time resolved FRET between cryptate labelled anti-His antibody bound to the His tag of the enzyme and Xlent® labelled-streptavidin bound the biotin-parsylation residue is analysed. The autoparsylation activity is detectable directly via the increase in HTRF signal.
The autoparsylation assay is performed as 384-well HTRF® (Cisbio, Codolet, France) assay format in Greiner low volume nb 384-well microtiter plates. 35 nM His-tagged Parp-1 (human, recombinant, Enzo Life Sciences GmbH, Lörrach, Germany) and a mixture of 125 nM bio-NAD (Biolog, Life science Inst., Bremen, Germany) and 800 nM NAD as co-substrate are incubated in a total volume of 6 μl (100 mM Tris/HCl, 4 mM Mg-chloride, 0.01% IGEPAL® CA630, 1 mM DTT, 0.5% DMSO, pH 8, 13 ng/μl activated DNA (BPS Bioscience, San Diego, US)) in the absence or presence of the test compound (10 dilution concentrations) for 150 min at 23° C. The reaction is stopped by the addition of 4 μl of the Stop/detection solution (70 nM SA-Xlent® (Cisbio, Codolet, France), 2.5 nM Anti-His-K® (Eu-labelled anti-His, Cisbio, Codolet, France) in 50 mM HEPES, 400 mM KF, 0.1% BSA, 20 mM EDTA, pH 7.0). After 1 h incubation at room temperature the HTRF is measured with an Envision multimode reader (Perkin Elmer LAS Germany GmbH) at excitation wavelength 340 nm (laser mode) and emission wavelengths 615 nm and 665 nm. The ratio of the emission signals is determined. The full value used is the inhibitor-free reaction. The pharmacological zero value used is Olaparib (LClabs, Woburn, US) in a final concentration of 1 μM. The inhibitory values (IC50) are determined using either the program Symyx Assay Explorer® or Condosseo® from GeneData.
A general note: In TR-FRET formats the signal depends on donor and acceptor labels being close together.

Assay [4] concerns the target T4, GST-tagged Tankyrase-1 (1023-1327 aa) (Homo sapiens, UniProt O95271).
T4 construct: GST-tagged Tankyrase-1 (1023-1327 aa)
The assay can be described thus: Tankyrase 1 autoparsylation assay (HTRF enzyme assay). The assay is classed as biochemical. A digest of the protocol: (§5)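 ~250 nM GST-tagged enzyme with 5 μM biotin-NAD in HEPES/Mg/DTT buffer pH 7.7, 10 compound concentrations, 90 min at 30 °C; EDTA stop. Eu-anti-GST/streptavidin-Xlent HTRF read (665/615 ratio) after 1 h RT. IC50 relative to inhibitor-free reaction and 5 μM XAV-939 as zero.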

Assay [5] addresses T5, GST-tagged Tankyrase-2 (873-1166 aa) (Homo sapiens, UniProt Q9H2K2).
T5 construct: GST-tagged Tankyrase-2 (873-1166 aa)
Nature of the assay: Tankyrase 2 autoparsylation assay (HTRF enzyme assay). The assay is classed as biochemical. A digest of the protocol:
as §5

Assay [6] concerns β-catenin. Conditions: literature (Huang et al., 2009); by increasing AXIN1 and AXIN2 levels; cited from earlier work.
Assay [7] has as its system DLD-1-cancer cells. The following applies: literature (Huang et al., 2009); cited from earlier work.

T1 sequence (Q9H2K2 873-1166): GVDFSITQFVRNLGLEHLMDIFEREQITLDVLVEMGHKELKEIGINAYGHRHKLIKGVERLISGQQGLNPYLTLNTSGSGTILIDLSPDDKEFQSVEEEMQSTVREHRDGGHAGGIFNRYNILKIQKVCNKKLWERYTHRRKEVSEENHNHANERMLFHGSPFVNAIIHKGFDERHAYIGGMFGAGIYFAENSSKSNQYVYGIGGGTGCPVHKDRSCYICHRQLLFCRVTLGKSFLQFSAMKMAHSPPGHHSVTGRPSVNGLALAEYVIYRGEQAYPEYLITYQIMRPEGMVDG
T4 sequence (O95271 1023-1327): as the sequence (O95271 1023-1327) above
T5 sequence (Q9H2K2 873-1166): as the sequence (Q9H2K2 873-1166) above

`CC(C)(O)c1ccc(-c2cn3c(F)c(F)cc3c(=O)[nH]2)cc1` [Compound A83, 6,7-difluoro-3-[4-(1-hydroxy-1-methyl-ethyl)-phenyl]-2H-pyrrolo[1,2-a]pyrazin-1-one]: the IC50 in assay [1], in assay [2] and in assay [3] was less than 300 nM in each case.

In the case of `Cc1cc2c(=O)[nH]c(-c3cnn(C(C)(C)C)c3)cn2c1` [Compound A57, 3-(1-tert-butyl-1H-pyrazol-4-yl)-7-methyl-2H-pyrrolo[1,2-a]pyrazin-1-one], the IC50 (usually the concentration at which inhibition is half-maximal) in assay [1] is 300 to 3000 nM; in assay [2] it was less than 300 nM; in assay [3] it was 300 to 3000 nM; in assay [4], 300 to 3000 nM; in assay [5], 300 to 3000 nM.

Regarding `Oc1nc(-c2ccc(C(F)(F)F)cc2)nc2c1CSCC2` [XAV939], the “Wnt-stimulated accumulation of β-catenin” value in assay [6] was “blocked Wnt-stimulated accumulation of β-catenin”. The “growth of DLD-1-cancer cells” value in assay [7] is reported as “inhibits growth”.

As to `O=c1[nH]c(-c2ccc(C3(O)CCCC3)cc2)cn2cc(F)cc12` [Compound A85, 7-fluoro-3-[4-(1-hydroxy-cyclopentyl)-phenyl]-2H-pyrrolo[1,2-a]pyrazin-1-one], the IC50 was less than 300 nM in assay [1], less than 300 nM in assay [2] and 300 to 3000 nM in assay [3].

For the molecule `CC(C)(O)c1ccc(-c2cn3c(F)ccc3c(=O)[nH]2)cc1` [Compound A84, 6-fluoro-3-[4-(1-hydroxy-1-methyl-ethyl)-phenyl]-2H-pyrrolo[1,2-a]pyrazin-1-one], the figures for the IC50 in assay [1], in assay [2] and in assay [3] were less than 300 nM, less than 300 nM and 300 to 3000 nM, respectively.

The values are drawn from patent publication US9120805B2, “Substituted pyrrolo[1,2-A]pyrazin-1-ones and pyrazolo[1,5-A]pyrazin-4-ones as inhibitors of tankyrase and poly(ADP-ribose)polymerase activity” (Merck Patent GmbH, priority 2012, dated 2015).
